Laboratory results reported in paper PMC1142193 (Evidence-based Complementary and Alternative Medicine, 2005).
“Also recorded” adds a separate entry of the source.

Molecular target: SARS-CoV 3CL^Pro (Severe acute respiratory syndrome coronavirus, UniProt P0C6U8)
Test: biochemical
Type: biochemical
Settings: for IC50: IC50, inhibition of SARS 3CL^Pro activity

Row | SMILES | Inhibition of 3CL^Pro activity (in words) | IC50 | Inhibition of 3CL^Pro activity at concentrations up to 100 µM (in words)
1 | O=c1c(O)cc([C@H]2Oc3cc(O)cc(O)c3C[C@H]2O)cc2c([C@H]3Oc4cc(O)cc(O)c4C[C@H]3O)cc(O)c(O)c12 [TF1, Theaflavin] | found to inhibit 3CL^Pro | 56 µM | 
2 | Oc1cc(O)c2c(c1)O[C@H](c1ccc(O)c(O)c1)[C@H](O)C2 [EC, epicatechin] | did not inhibit | ≥ 100 µM | not able to inhibit
3 | Cn1c(=O)c2[nH]cnc2n(C)c1=O [Theophylline, theophylline, reference compound] | did not inhibit; also recorded: did not influence 3CL^Pro activity |  | not able to inhibit
4 | Cn1c(=O)c2c(ncn2C)n(C)c1=O [Caffeine, caffeine, reference compound] | did not inhibit; also recorded: did not influence 3CL^Pro activity |  | not able to inhibit
5 | Oc1cc(O)c2c(c1)O[C@H](c1cc(O)c(O)c(O)c1)[C@H](O)C2 [EGC, epigallocatechin] | did not inhibit | ≥ 100 µM | not able to inhibit
6 | O=C(O[C@@H]1Cc2c(O)cc(O)cc2O[C@@H]1c1ccc(O)c(O)c1)c1cc(O)c(O)c(O)c1 [ECg, epicatechin gallate] | did not inhibit | ≥ 100 µM | not able to inhibit
